Source: ChEMBL document CHEMBL1127115, “Synthesis and antihypertensive activity of KC-399, a benzopyran K+ channel opener with long duration of action and less tachycardia” (Bioorg Med Chem Lett, 1993)

Key:
Assay type in all cases: functional
Rattus norvegicus [1] = assay: Mean blood pressure was determined in conscious male spontaneously hypertensive rats (SHR) at a dose of 0.01 mg/Kg
Rattus norvegicus [2] = assay: Mean blood pressure was determined in conscious male spontaneously hypertensive rats (SHR) at a dose of 0.03 mg/Kg
Rattus norvegicus [3] = assay: Antihypertensive activity in spontaneously hypertensive rats (SHR) expressed as dose required to produce fall in mean blood pressure (MBP) by peroral administration
Rattus norvegicus [4] = assay: Tested for antihypertensive activity in spontaneously hypertensive rats (SHR) as dose required to produce fall in mean blood pressure (MBP) by peroral administration
Rattus norvegicus [5] = species on record: Rattus norvegicus; assay: Tested for effective concentration required to relax contraction induced by 30 mM KCl in rat aorta
Rattus norvegicus [6] = assay: Heart rate was determined in conscious male spontaneously hypertensive rats (SHR) at a dose of 0.01 mg/Kg dose
Rattus norvegicus [7] = assay: Heart rate was determined in conscious male spontaneously hypertensive rats (SHR) at a dose of 0.03 mg/Kg dose
Rattus norvegicus [8] = assay: Tested for antihypertensive activity, duration of action at the dose of 0.03 mg/Kg was determined; ranges from 7-8h
Rattus norvegicus [9] = assay: Mean blood pressure was determined in conscious male SHR at a dose of 0.1 mg/Kg
Rattus norvegicus [10] = assay: Mean blood pressure was determined in conscious male spontaneously hypertensive rats (SHR) at a dose of 0.3 mg/Kg
Rattus norvegicus [11] = assay: Heart rate was determined in conscious male spontaneously hypertensive rats (SHR) at a dose of 0.1 mg/Kg
Rattus norvegicus [12] = assay: Heart rate was determined in conscious male spontaneously hypertensive rats (SHR) at a dose of 0.3 mg/Kg

N#CCC/N=C(\S)C1=CC(CF)(CF)Oc2ccc([N+](=O)[O-])cc21
Blood pressure (Rattus norvegicus [1]): 156 mmHg
Blood pressure (Rattus norvegicus [2]): 155 mmHg
Dose (Rattus norvegicus [3]): 0.03 mg/kg
Dose (Rattus norvegicus [4]): 0.01 mg/kg
EC50 (Rattus norvegicus [5]): 0.3 nM
Heart rate (Rattus norvegicus [6]): 310 beats min-1
Heart rate (Rattus norvegicus [7]): 323 beats min-1
Duration of action (Rattus norvegicus [8]): 7 h

CC1(C)Oc2ccc(C#N)cc2C(N2CCCC2=O)C1O (stereo unspecified) [CROMAKALIM]
EC50 (Rattus norvegicus [5]): 150 nM

CC1(C)Oc2ccc(C#N)cc2[C@@H](N2CCCC2=O)[C@@H]1O [LEVCROMAKALIM]
Blood pressure (Rattus norvegicus [9]): 146 mmHg
Blood pressure (Rattus norvegicus [10]): 153 mmHg
Dose (Rattus norvegicus [3]): 0.3 mg/kg
Dose (Rattus norvegicus [4]): 0.1 mg/kg
Heart rate (Rattus norvegicus [11]): 318 beats min-1
Heart rate (Rattus norvegicus [12]): 313 beats min-1
Duration of action (Rattus norvegicus [8]): 7 h
